Experimental findings from patent US9375459B2, “Cyclic peptides with an anti-neoplasic and anti-angiogenic activity” (priority 2011, dated 2016) are described below.

“Also recorded” adds a separate entry of the source. Where a SMILES comes first, the peptide text is derived from it.

One data set has as its system human tumor cells. Put plainly: Cytotoxic activity screening of peptide library on human tumor cell lines, SRB method. To be noted: SRB method; cytotoxic = dose-dependent 50% inhibition of proliferation, GI50 below 100 μM in at least one cell line. Type of data set: cell-based. The method, then:
Negative control cells were cultured on a volume of vehicle equal to that of the experimental samples. An “x-y” curve (dose-response) was established with the percent of surviving cells, compared in respect to the negative control cells, and the following parameters were estimated: 50% growth inhibition (GI50); Total growth inhibition (TGI); and the lethal concentration 50 (LC50), that is the concentration causing the 50% of cell death (Boyd M R, Paull K D, and Rubinstein L R (1992) “Data display and analysis strategies for the NCI Disease Oriented In-Vitro Antitumor Drug Screen, in Cytotoxic Anticancer Drugs: Models and Concept for Drug Discovery and Development” (Baleriote F A, Corbett T H and Baker L H eds) pp 11-34, Kluwer Academia Publishers, Boston).
Were considered as cytotoxic peptides all those peptides being able of inhibiting 50% of the cellular proliferation, in a dose-dependent manner, and showing GI50 values below 100 μM, at least in one of the cell lines studied. The human tumor cell lines used were: HEp-2 (larynx carcinoma), A549 (lung epithelial adenocarcinoma), M14 (melanoma), Colo 205 (colon adenocarcinoma), Ls174T (colon adenocarcinoma), LnCAP (prostate carcinoma), PC-3 (prostate carcinoma) and H 125 (non-small cell lung adenocarcinoma). Represented are primary sequences for the designed peptides, the code used for its generation and their respective cytotoxic capacity on human tumor cells.
Background: The SRB assay estimates cell density from bound dye.
As for `CC[C@H](C)[C@H](NC(=O)[C@@H](NC(=O)[C@H](CCCCN)NC(=O)[C@H](CCC(N)=O)NC(=O)[C@H](CO)NC(=O)[C@H](CC(N)=O)NC(=O)[C@H](CO)NC(=O)[C@@H](NC(=O)[C@@H](NC(=O)[C@H](CO)NC(=O)[C@H](CC(C)C)NC(=O)[C@H](Cc1ccccc1)NC(=O)[C@H](CC(=O)O)NC(=O)[C@H](CCCNC(=N)N)NC(=O)CNC(=O)[C@@H](N)[C@@H](C)O)[C@@H](C)O)[C@@H](C)O)C(C)C)C(=O)N[C@@H](Cc1ccccc1)C(=O)N[C@@H](C)C(=O)N[C@@H](C)C(=O)N[C@@H](Cc1c[nH]c2ccccc12)C(N)=O` [Peptide F07P16] (H-TGRDFLSTTSNSQKVIFAAW-NH2), the “Cytotoxic activity in vitro” value was “− (symbol − indicates its absence, following criteria established in Example 2)”. On the same count and under the same terms, to `CC[C@H](C)[C@H](NC(=O)[C@H](CCCNC(=N)N)NC(=O)[C@H](CCC(N)=O)NC(=O)[C@H](CC(N)=O)NC(=O)[C@H](C)NC(=O)[C@@H](NC(=O)[C@H](Cc1ccc(O)cc1)NC(=O)CNC(=O)[C@H](CO)NC(=O)[C@H](Cc1ccccc1)NC(=O)[C@H](CC(=O)O)NC(=O)[C@H](Cc1ccccc1)NC(=O)[C@@H](NC(=O)[C@H](CC(=O)O)NC(=O)[C@H](CC(N)=O)NC(=O)CNC(=O)CNC(=O)[C@H](C)NC(=O)[C@@H](N)CC(=O)O)[C@@H](C)O)[C@@H](C)O)C(=O)N[C@@H](CC(N)=O)C(N)=O` [Peptide M07P39] (H-DAGGNDTFDFSGYTANQRIN-NH2) belongs “− (symbol − indicates its absence, following criteria established in Example 2)”; to `CC[C@H](C)[C@H](NC(=O)[C@H](CC(=O)O)NC(=O)[C@H](CCCCN)NC(=O)CNC(=O)[C@H](C)NC(=O)CNC(=O)CNC(=O)[C@H](Cc1c[nH]c2ccccc12)NC(=O)[C@H](CC(C)C)NC(=O)[C@H](CCC(=O)O)NC(=O)[C@@H](N)CC(=O)O)C(=O)N[C@@H](Cc1ccccc1)C(=O)N[C@H](C(=O)N[C@@H](Cc1ccccc1)C(=O)N[C@@H](CO)C(=O)N[C@@H](C)C(=O)N[C@@H](C)C(=O)N[C@@H](CO)C(=O)N[C@@H](CC(=O)O)C(=O)N[C@@H](CO)C(N)=O)C(C)C` [Peptide O07P102] (H-DELWGGAGKDIFVFSAASDS-NH2), “− (symbol − indicates its absence, following criteria established in Example 2)”. Same read-out and setting: in the case of `CC[C@H](C)[C@H](N)C(=O)N[C@@H](Cc1ccccc1)C(=O)N[C@H](C(=O)N[C@@H](Cc1ccccc1)C(=O)N[C@@H](CO)C(=O)N[C@@H](C)C(=O)N[C@@H](C)C(=O)N[C@@H](CO)C(=O)N[C@@H](CC(=O)O)C(=O)N[C@@H](CO)C(=O)N[C@@H](C)C(=O)N1CCC[C@H]1C(=O)NCC(=O)N[C@@H](C)C(=O)N[C@@H](CO)C(=O)N[C@@H](CC(=O)O)C(=O)N[C@@H](Cc1c[nH]c2ccccc12)C(=O)N[C@H](C(=O)N[C@@H](CCCNC(=N)N)C(=O)N[C@@H](CC(=O)O)C(N)=O)[C@@H](C)CC)C(C)C` [Peptide O07P103] (H-IFVFSAASDSAPGASDWIRD-NH2) it was “− (symbol − indicates its absence, following criteria established in Example 2)”; in that of `CC[C@H](C)[C@H](NC(=O)CNC(=O)[C@H](CCCCN)NC(=O)[C@H](CCC(N)=O)NC(=O)[C@H](Cc1ccccc1)NC(=O)[C@H](CC(=O)O)NC(=O)[C@H](CCCNC(=N)N)NC(=O)[C@@H](NC(=O)[C@H](Cc1c[nH]c2ccccc12)NC(=O)[C@H](CC(=O)O)NC(=O)[C@H](CO)NC(=O)[C@H](C)NC(=O)CNC(=O)[C@@H]1CCCN1C(=O)[C@H](C)N)[C@@H](C)CC)C(=O)N[C@@H](CC(=O)O)C(=O)N[C@@H](CCCCN)C(=O)N[C@H](C(=O)N[C@@H](CC(=O)O)C(=O)N[C@@H](CC(C)C)C(N)=O)[C@@H](C)CC` [Peptide O07P104] (H-APGASDWIRDFQKGIDKIDL-NH2), “− (symbol − indicates its absence, following criteria established in Example 2)”.

Staying with this data set, now noted: peptide library screening.
Take `CC[C@H](C)[C@H](NC(=O)[C@@H](NC(=O)[C@H](CCCCN)NC(=O)[C@H](CCC(N)=O)NC(=O)[C@H](CO)NC(=O)[C@H](CC(N)=O)NC(=O)[C@H](CO)NC(=O)[C@@H](NC(=O)[C@@H](NC(=O)[C@H](CO)NC(=O)[C@H](CC(C)C)NC(=O)[C@H](Cc1ccccc1)NC(=O)[C@H](CC(=O)O)NC(=O)[C@H](CCCNC(=N)N)NC(=O)CNC(=O)[C@@H](N)[C@@H](C)O)[C@@H](C)O)[C@@H](C)O)C(C)C)C(=O)N[C@@H](Cc1ccccc1)C(=O)N[C@@H](C)C(=O)N[C@@H](C)C(=O)N[C@@H](Cc1c[nH]c2ccccc12)C(N)=O` [Peptide F07P16] (H-TGRDFLSTTSNSQKVIFAAW-NH2): the “cytotoxic / biological activity in vitro on tumor cells” value was “no cytotoxic activity; also recorded: inactive”.
